Data on 17 compounds can be found in patent US8410094B2, “Amide compounds, their pharmaceutical compositions, their preparation method and their uses” (Shanghai Institute of Materia Medica, Chinese Academy of …, priority 2008, dated 2013).

This test has as its target T1, CCR5 (Homo sapiens, UniProt P51681).
T1 construct: expressed in transfected cells
Kind of test: Inhibition of CCR5: [35S]GTPγS binding assays (filtration, SPA-WGA) and calcium influx assay, 10 nM RANTES, CHO-CCR5. In kind it is biochemical. The conditions noted are these: for IC50: inhibition of GTPγS binding induced by 10 nM RANTES, CHO-CCR5; for inhibition at 0.03 µM: compound at 30 nM, read-out: inhibition against CCR5 @30 nM; for inhibition at 0.03 µM / inhibition at 0.3 µM: 10 nM RANTES; for inhibition at 0.3 µM: compound at 300 nM, read-out: inhibition against CCR5 @300 nM. How it is done: CCR5 belongs to G-Protein-Coupled Receptor (GPCR) family. The developing technology of GPCR-based drugs have been well-developed, among them, the experimental techniques such as ligand-receptor binding assay, GTPγS binding assay and Ca^2+ flux assay have been widely used in drug-screening related to chemokine receptors. The inhibitory activities of the compounds according to the present invention against CCR5 are measured by three methods, i.e., [^35S]GTPγS filter binding assay, SPA-WGA-based [^35S]GTPγS binding assay and calcium influx assay. At the same time, the antiviral activities in cell of the compounds according to the present invention are evaluated by using two kinds HIV-1 subtypes: H4DA5 cell model and PBMC system virus replication model.
A. [^35S]GTPγS Binding Assay
After binding with an agonist, CCR5 experiences a conformation change such that CCR5 interacts with G protein so as to active the G protein. G protein is a tripolymer composed of α-subunit and βγ-subunit. Since the ability of α-subunit binding to GTP depends on the interaction of CCR5 with the agonist, the ability of an agonist for activating CCR5 can be reflected by determining the amount of GTP binding to α-subunit. In a GTPγS binding assay, a ^35S-labeled GTP analogue GTPγS, which can bind with an activated α-subunit without being hydrolyzed, is used to replace GTP in order for eliminating the defect that the amount of GTP binding to G protein can not exactly reflect the activation of CCR5 due to the hydrolysis of GTO by GTPase and for convenience of detection. So, α-subunit binds with GDP when CCR5 is not activated, and after the activation of CCR5, α-subunit binds with GTPγS such that GTPγS irreversible binds to α-subunit. Therefore, the amount of [^35S]-GTPγS binding to α-subunit could reflect the level of CCR5 activated by an agonist. The ability of the agonist for activating CCR5 will decrease when an antagonist is added.
Such experiment has been referred to as GTPγS filtration assay in which [^35S]-GTPγS bound with the free G protein could be separated by membrane filtration.
Alternatively, SPA (Scintillation Proximity Assay) technique can be used to detect the [^35S]-GTPγS bound to G protein, which is called SPA-WGA-based [35S]GTPγS binding assay. The principle of SPA technique is as follows. Sub-atomic particles released during the decay of radioactive atoms, for example β-ray (electron), can excite microspheres at a sufficiently close distance to emit light so as to be detected by a Scintillation Counter. In an aqueous solution, most of the energy of these rays is absorbed by the solvent, and the traveling distance of these rays is limited.
The activation of G protein by CCR5 is determined by the following experiments.
CHO (Chinese hamster ovary cell) permanent cell line expressing CCR5 (CHO-CCR5) (a cell line constructed by Shanghai Targetdrug Ltd.) was lysed with a lysis buffer (5 mM Tris-HCl, pH 7.5, 5 mM EDTA and 5 mM EGTA) and then centrifugated at 15,000×g for 10 min to obtain cell membrane. After the cell membrane was resuspended in a reaction buffer (5 mM Tris-HCl, pH 7.5, 5 mM MgCl2, 1 mM EGTA, 100 mM NaCl), the protein concentration was determined using Bioford Protein Assay Kit manufactured by Bio-Rad Laboratories Inc. Subsequently, GTPγS binding assay was performed in the reaction buffer, wherein the reaction system was 100 μL containing 10 μg membrane protein, 40 μM GDP and 0.5 nM [^35S]-GTPγS (1200 Ci/mmol). After the compound to be tested (the compound was first dissolved in DMSO and then diluted in gradient with the reaction buffer according to the specific situation, wherein the final concentration of DMSO was 1% (v/v) in the whole reaction system) was added and shaken to mix homogeneously, the reaction tube was incubated at 30° C. for 1 hour. After the reaction finished, the tube was placed on ice, and the reaction mixture was diluted with PBS to quench the reaction and filtered under reduced pressure with a GF/C filter membrane. […]

T1 sequence (P51681 whole entry): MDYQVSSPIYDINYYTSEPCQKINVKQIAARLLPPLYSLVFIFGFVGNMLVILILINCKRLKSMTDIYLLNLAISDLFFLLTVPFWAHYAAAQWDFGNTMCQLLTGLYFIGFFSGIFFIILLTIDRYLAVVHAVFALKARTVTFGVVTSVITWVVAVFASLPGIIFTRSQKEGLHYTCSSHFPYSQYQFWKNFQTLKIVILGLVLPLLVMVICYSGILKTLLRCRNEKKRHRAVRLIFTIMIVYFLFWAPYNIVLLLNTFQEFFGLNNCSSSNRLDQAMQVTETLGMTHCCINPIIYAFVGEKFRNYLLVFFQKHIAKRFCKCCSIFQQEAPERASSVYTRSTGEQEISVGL

Regarding `CC(=O)N1CCC(C(=O)N(CCCN2[C@@H]3CC[C@H]2C[C@H](NC(=O)Cc2ccc([N+](=O)[O-])c4ccccc24)C3)c2ccc(C)c(Cl)c2)CC1` [Compound 7s, 1-acetyl-N-(3-chloro-4-methylphenyl)-N-(3-(3-exo-(2-(4-nitro-1-naphthyl)acetamido)-8-azabicyclo[3.2.1]oct-8-yl)propyl)-4-piperidinylcarboxamide], the IC50 came out at 3.34 nM.

As to `CC(=O)N1CCC(C(=O)N(CCCN2C3CCC2CC(NC(=O)c2cccnc2)C3)c2ccc(C)c(Cl)c2)CC1` (stereo not drawn) [Compound 7t, 1-acetyl-N-(3-chloro-4-methylphenyl)-N-(3-(3-exo-nicotinamido-8-azabicyclo[3.2.1]oct-8-yl)propyl)-4-piperidinylcarboxamide], the inhibition at 0.03 µM is 3.36% and the inhibition at 0.3 µM is 15.6%.

Regarding `CC(=O)N1CCC(C(=O)N(CCCN2C3CCC2CC(NC(=O)c2ccc(C(F)(F)F)cc2)C3)c2ccc(C)c(Cl)c2)CC1` (stereo not drawn) [Compound 7u, 1-acetyl-N-(3-chloro-4-methylphenyl)-N-(3-(3-exo-p-trifluoromethylbenzoylamido-8-azabicyclo[3.2.1]oct-8-yl)propyl)-4-piperidinylcarboxamide], the inhibition at 0.03 µM was 26.5% and the inhibition at 0.3 µM turned out to be 96.3%.

Turning to `CC(=O)N1CCC(C(=O)N(CCCN2C3CCC2CC(NC(=O)CCc2cccnc2)C3)c2ccc(C)c(Cl)c2)CC1` (stereo not drawn) [Compound 7v, 1-acetyl-N-(3-chloro-4-methylphenyl)-N-(3-(3-exo-(3-(3-pyridyl)propionamido)-8-azabicyclo[3.2.1]oct-8-yl)propyl)-4-piperidinylcarboxamide], the inhibition at 0.03 µM worked out at 17.5% and the inhibition at 0.3 µM amounted to 76.7%.

Take `CC(=O)N1CCC(C(=O)N(CCCN2[C@@H]3CC[C@H]2C[C@H](NC(=O)COc2ccc4ccccc4c2)C3)c2ccc(C)c(Cl)c2)CC1` [Compound 7w, 1-acetyl-N-(3-chloro-4-methylphenyl)-N-(3-(3-exo-(2-(2-naphthoxy)acetamido)-8-azabicyclo[3.2.1]oct-8-yl)propyl)-4-piperidinylcarboxamide]: the IC50 amounted to 18.1 nM.

Consider `CC(=O)N1CCC(C(=O)N(CCCN2[C@@H]3CC[C@H]2C[C@H](NC(=O)COc2ccc(Cl)cc2)C3)c2ccc(C)c(Cl)c2)CC1` [Compound 7x, 1-acetyl-N-(3-chloro-4-methylphenyl)-N-(3-(3-exo-(2-p-chlorophenoxy)acetamido-8-azabicyclo[3.2.1]oct-8-yl)propyl)-4-piperidinylcarboxamide], for which the IC50 is 27.3 nM.

`CC(=O)N1CCC(C(=O)N(CCCN2[C@@H]3CC[C@H]2C[C@H](NC(=O)COc2ccc(Cl)cc2Cl)C3)c2ccc(C)c(Cl)c2)CC1` [Compound 7y, 1-acetyl-N-(3-chloro-4-methylphenyl)-N-(3-(3-exo-(2-(2,4-dichlorophenoxy)acetamido)-8-azabicyclo[3.2.1]oct-8-yl)propyl)-4-piperidinylcarboxamide]: the IC50 was 24.6 nM.

Consider `CNS(=O)(=O)c1ccc(CC(=O)N[C@@H]2C[C@H]3CC[C@@H](C2)N3CCCN(C(=O)C2CCN(C(C)=O)CC2)c2ccc(C)c(Cl)c2)cc1` [Compound 7z, 1-acetyl-N-(3-chloro-4-methylphenyl)-N-(3-(3-exo-(2-(4-(N-methylsulphonyl)phenyl)acetamido)-8-azabicyclo[3.2.1]oct-8-yl)propyl)-4-piperidinylcarboxamide], for which the 50% inhibitory concentration (IC50) is 17.3 nM.

As for `CC(=O)N1CCC(C(=O)N(CCCN2[C@@H]3CC[C@H]2C[C@H](NS(C)(=O)=O)C3)c2ccc(C)c(Cl)c2)CC1` [Compound 9a, 1-acetyl-N-(3-chloro-4-methylphenyl)-N-(3-(3-exo-(methylsulfonyl amido)-8-azabicyclo[3.2.1]oct-8-yl)propyl)-4-piperidinylcarboxamide], the concentration for half-maximal inhibition (IC50) was found to be 20.1 nM.

On to `CC(=O)N1CCC(C(=O)N(CCCN2[C@@H]3CC[C@H]2C[C@H](NS(=O)(=O)c2ccc([N+](=O)[O-])cc2)C3)c2ccc(C)c(Cl)c2)CC1` [Compound 9c, 1-acetyl-N-(3-chloro-4-methylphenyl)-N-(3-(3-exo-(4-nitrophenylsulfonylamido)-8-azabicyclo[3.2.1]oct-8-yl)propyl)-4-piperidinylcarboxamide], for which the concentration for half-maximal inhibition (IC50) was 3.3 nM.

For `CC(=O)N1CCC(C(=O)N(CCCN2[C@@H]3CC[C@H]2C[C@H](NS(=O)(=O)c2cccc([N+](=O)[O-])c2)C3)c2ccc(C)c(Cl)c2)CC1` [Compound 9d, 1-acetyl-N-(3-chloro-4-methylphenyl)-N-(3-(3-exo-(3-nitrophenylsulfamide)-8-azabicyclo[3.2.1]oct-8-yl)propyl)-4-piperidinylcarboxamide], the IC50 was 2.59 nM.

On to `CC(=O)N1CCC(C(=O)N(CCCN2[C@@H]3CC[C@H]2C[C@H](NS(=O)(=O)Cc2ccccc2)C3)c2ccc(C)c(Cl)c2)CC1` [Compound 9e, 1-acetyl-N-(3-chloro-4-methylphenyl)-N-(3-(3-exo-(phenylmethylsulfonylamido)-8-azabicyclo[3.2.1]oct-8-yl)propyl)-4-piperidinylcarboxamide], for which the 50% inhibitory concentration (IC50) turned out to be 7.4 nM.

As to `CC(=O)N1CCC(C(=O)N(CCCN2[C@@H]3CC[C@H]2C[C@H](NS(=O)(=O)c2cccs2)C3)c2ccc(C)c(Cl)c2)CC1` [Compound 9f, 1-acetyl-N-(3-chloro-4-methylphenyl)-N-(3-(3-exo-(thienyl-2-sulfonylamido)-8-azabicyclo[3.2.1]oct-8-yl)propyl)-4-piperidinylcarboxamide], the IC50 amounted to 2.53 nM.

Consider `COc1ccc(NC(=O)NC2CC3CCC(C2)N3CCCN(C(=O)C2CCN(C(C)=O)CC2)c2ccc(C)c(Cl)c2)cc1` (stereo not drawn) [Compound 10a, 1-acetyl-N-(3-chloro-4-methylphenyl)-N-(3-(3-exo-(3-(4-methoxylphenyl)ureylene)-8-azabicyclo[3.2.1]oct-8-yl)propyl)-4-piperidinylcarboxamide], for which, for the setting “class by inhibition at 30 nM or 300 nM”, the “inhibition against CCR5 (class symbol in IC50 column)” value is reported as “++ (the compound at 300 nM has an inhibition against CCR5 of more thant 50% at 300 nM)”.

As for `CC(=O)N1CCC(C(=O)N(CCCN2C3CCC2CC(NC(=O)Nc2ccc(Cl)c(C(F)(F)F)c2)C3)c2ccc(C)c(Cl)c2)CC1` (stereo not shown) [Compound 10b, 1-acetyl-N-(3-(3-(3-(4-chloro-3-(trifluoromethyl)phenyl)ureylene)-8-azabicyclo[3.2.1]oct-8-yl)propyl)-N-(3-chloro-4-methylphenyl)-4-piperidinylcarboxamide], the IC50 is 28.7 nM.

As for `CC(=O)N1CCC(C(=O)N(CCCN2C3CCC2CC(NC(=O)Nc2ccccc2)C3)c2ccc(C)c(Cl)c2)CC1` (stereo not shown) [Compound 10c, 1-acetyl-N-(3-(3-(3-phenylureylene)-8-azabicyclo[3.2.1]oct-8-yl)propyl)-N-(3-chloro-4-methylphenyl)-4-piperidinylcarboxamide], the inhibition at 0.03 µM worked out at 33.5% and the inhibition at 0.3 µM turned out to be 41.9%.

Consider `CC(=O)N1CCC(C(=O)N(CCCN2C3CCC2CC(n2c(C)nnc2C(C)C)C3)c2ccc(C)c(Cl)c2)CC1` (stereo not drawn) [Compound 11, 1-acetyl-N-(3-chloro-4-methylphenyl)-N-(3-(3-exo-(3-isopropyl-5-methyl-4-hydro-1,2,4-triazol-4-yl)-8-azabicyclo[3.2.1]oct-8-yl)propyl)-4-piperidinylcarboxamide], for which the inhibition at 0.03 µM was 48.8% and the inhibition at 0.3 µM worked out at 98.4%.

The IC50 is the concentration that gives 50% inhibition. As usually defined, the inhibition is the drop in the measured response relative to a control, in per cent.
